Assays:
[1] = test system: HIV GUN-1 strain; assay: Antiviral activity against HIV GUN-1 strain in MT-2 cells (fluorescent antibody assay); format: cell-based; settings: HIV GUN-1, MT-2 cells, MOI 0.05, 2 days
Protocol: (§1) Antiviral activity against HIV GUN-1 strain (Jpn. J. Cancer Res., vol. 78, 11-15(1987)) and HIV IIIB strain (Science, vol. 224, 497-500(1984)) in MT-2 cells and MT-4 cells (Nature, vol. 294, 770-771 (1981))
(§2) MT-2 cells and MT-4 cells were transferred to RPMI 1640 medium (supplemented with 10% fetal calf serum (FCS)) at 2×10^5 cells/ml. […] The cells were cultured at 37° C. One hour later, the cells were infected with HIV at multiplicity of infection of 0.05 (MOI=0.05) and cultured at 37° C. for 2 days. Smears of MT-2 cells and MT-4 cells were prepared and assayed for HIV-positive cells by fluorescent antibody assay (Science, vol. 229, 563(1985)). 3′-Azide-3′-deoxythymidine (hereinafter abbreviated as AZT) was used as a positive control.
(§3) The relative infection rate (%), expressed as a percentage, was calculated from the number of HIV-infected cells in the drug-treated group relative to the number of infected cells in the drug-free solution-treated group as a control group by the following equation:
(§4) Relative infection rate (%)=(N1/N2)×100
(§5) in which N1 is the number of HIV-positive cells in the test drug-treated group, and N2 is the number of HIV-positive cells in the control group.

[2] = test system: HIV GUN-1 strain; assay: Antiviral activity against HIV GUN-1 strain in MT-4 cells (fluorescent antibody assay); format: cell-based; settings: HIV GUN-1, MT-4 cells, MOI 0.05, 2 days
Protocol: as §1, §2, §3, §4, §5

[3] = test system: HIV IIIB strain; assay: Antiviral activity against HIV IIIB strain in MT-4 cells (fluorescent antibody assay); format: cell-based; settings: MOI 0.05, 2 days
Protocol: as §1, §2, §3, §4, §5

[4] = test system: HIV IIIB strain; assay: Antiviral activity against HIV IIIB strain in MT-2 cells (fluorescent antibody assay); format: cell-based; settings: MOI 0.05, 2 days
Protocol: as §1, §2, §3, §4, §5

[5] = test system: MT-2 cells; assay: Cytotoxicity against MT-2 cells (trypan blue exclusion); format: cell-based; settings: 2 days, relative to control group
Protocol: (§6) Cytotoxicity Against MT-2 Cells and MT-4 Cells
(§7) MT-2 cells and MT-4 cells were transferred to RPMI 1640 medium (supplemented with 10% FCS) at 2×10^5 cells/ml. […] The cells were cultured at 37° C. Two days later, the trypan blue exclusion test was carried out and the number of living cells in each group was counted.
(§8) Relative survival rate (%), expressed as a percentage, was calculated from the number of living cells in the test drug-treated group relative to the number of living cells in the drug-free solution-treated group as a control group, by the following equation:
(§9) Relative survival rate (%)=(N3/N4)×100
(§10) in which N3 is the number of living cells in the test drug-treated group, and N4 is the number of living cells in the control group.

[6] = test system: MT-4 cells; assay: Cytotoxicity against MT-4 cells (trypan blue exclusion); format: cell-based; settings: 2 days, relative to control group
Protocol: as §6, §7, §8, §9, §10

[7] = test system: SD rats
[8] = test system: HIV GUN-1 strain; assay: Antiviral activity against HIV GUN-1 strain in C8166 cells (syncytia count); format: cell-based; settings: HIV GUN-1, C8166 cells, MOI 0.25, 2 days
Protocol: Antiviral Activity Against HIV GUN-1 Strain in C8166 Cells (Salahuddinn et al., Virology, vol. 129, 51-64(1983))
C8166 cells were transferred to RPMI 1640 medium (supplemented with 10% FCS) at 2×10^5 cells/ml. […] The cells were cultured at 37° C. One hour later, the cells were infected with HIV at multiplicity of infection (MOI) of 0.25 (MOI=0.25) and cultured at 37° C. for 2 days. Then the number of syncytia induced by HIV infection was determined.
Relative infection rate (%), expressed as a percentage, was calculated from the number of HIV-infected cells in the test drug-treated group relative to the number of HIV-infected cells in the drug-free solution-treated group as a control group, by the following equation:
Relative infection rate (%)=(N5/N6)×100
in which N5 is the number of syncytia in the test drug-treated group, and N6 is the number of syncytia in the control group.

[9] = test system: beagle dogs

For `Cc1cn([C@H]2C[C@H](N=[N+]=[N-])[C@@H](CO)O2)c(=O)[nH]c1=O` [AZT, 3′-Azide-3′-deoxythymidine], the “Relative infection rate (%)” value ([1]; drug 0.001 μg/ml) was 100%, the “Relative infection rate (%)” value ([1]; drug 0.01 μg/ml) was 30% and the “Relative infection rate (%)” value ([1]; drug 0.1 μg/ml) was 10%. For the same compound, the “Relative infection rate (%)” value ([1]; drug 1 μg/ml) was 0%, the “Relative infection rate (%)” value ([1]; drug 10 μg/ml) was 0% and the “Relative infection rate (%)” value ([1]; drug 100 μg/ml) was 0%. For the same compound, the “Relative infection rate (%)” value ([1]; drug 1000 μg/ml) was 0%, the “Relative infection rate (%)” value ([2]; drug 0.001 μg/ml) was 100% and the “Relative infection rate (%)” value ([2]; drug 0.01 μg/ml) was 40%. For the same compound, the “Relative infection rate (%)” value ([2]; drug 0.1 μg/ml) was 4%, the “Relative infection rate (%)” value ([2]; drug 1 μg/ml) was 0% and the “Relative infection rate (%)” value ([2]; drug 10 μg/ml) was 0%. For the same compound, the “Relative infection rate (%)” value ([2]; drug 100 μg/ml) was 0%, the “Relative infection rate (%)” value ([2]; drug 1000 μg/ml) was 0% and the “Relative infection rate (%)” value ([3]; drug 0.001 μg/ml) was 100%. The “Relative infection rate (%)” value ([3]; drug 0.01 μg/ml) was 25%, the “Relative infection rate (%)” value ([3]; drug 0.1 μg/ml) was 5% and the “Relative infection rate (%)” value ([3]; drug 1 μg/ml) was 0%. The “Relative infection rate (%)” value ([3]; drug 10 μg/ml) was 0%, the “Relative infection rate (%)” value ([3]; drug 100 μg/ml) was 0% and the “Relative infection rate (%)” value ([3]; drug 1000 μg/ml) was 0%. For the same compound, the “Relative infection rate (%)” value ([4]; drug 0.001 μg/ml) was 100%, the “Relative infection rate (%)” value ([4]; drug 0.01 μg/ml) was 20% and the “Relative infection rate (%)” value ([4]; drug 0.1 μg/ml) was 10%. The “Relative infection rate (%)” value ([4]; drug 1 μg/ml) was 0%, the “Relative infection rate (%)” value ([4]; drug 10 μg/ml) was 0% and the “Relative infection rate (%)” value ([4]; drug 100 μg/ml) was 0%. The “Relative infection rate (%)” value ([4]; drug 1000 μg/ml) was 0%, the “Relative survival rate (%)” value ([5]; drug 10 μg/ml) was 100% and the “Relative survival rate (%)” value ([5]; drug 100 μg/ml) was 100%. The “Relative survival rate (%)” value ([5]; drug 1000 μg/ml) was 100%, the “Relative survival rate (%)” value ([6]; drug 10 μg/ml) was 100% and the “Relative survival rate (%)” value ([6]; drug 100 μg/ml) was 100%. For the same compound, the “Relative survival rate (%)” value ([6]; drug 1000 μg/ml) was 84%.

`O=c1[nH]c(=O)n([C@H]2C[C@H](O)[C@@H](CO)O2)cc1C(F)(F)F` [FTD, trifluridine] was tested, and the “Maximum tolerated dose (causing no death, expressed as FTD dose)” value ([7]; male SD rats, oral, repeated for 14 days, combination molar ratio FTD/compound 1=1/0.5) was 150 mg/kg, the “Infection rate (%)” value ([8]; FTD 0.01 μg/ml) was 90% and the “Infection rate (%)” value ([8]; FTD 0.1 μg/ml) was 59%. The “Infection rate (%)” value ([8]; FTD 1 μg/ml) was 2%, the “Infection rate (%)” value ([8]; FTD 10 μg/ml) was 0% and the “Infection rate (%)” value ([8]; FTD 100 μg/ml) was 0%. For the same compound, the “Infection rate (%)” value ([8]; FTD 1000 μg/ml) was 0% and the “Maximum tolerated dose (causing no death, expressed as FTD dose)” value ([9]; male beagle dogs, oral, repeated for 14 days, combination molar ratio FTD/compound 1=1/0.5) was 6 mg/kg.

In the case of `Cl.N=C1CCCN1Cc1[nH]c(=O)[nH]c(=O)c1Cl` [Compound 1, 5-Chloro-6-(2-iminopyrrolidin-1-yl)methyl-2,4(1H,3H)-pyrimidinedione Hydrochloride], the “Change of the maximum tolerated dose of FTD by compound 1” value ([7]; SD rats, FTD + compound 1 versus FTD alone) is reported as “approximately tripled” and the “Change of the maximum tolerated dose of FTD by compound 1” value ([9]; beagle dogs, FTD + compound 1 versus FTD alone) is reported as “approximately tripled”.
